Reference: PubChem BioAssay AID1259411 (Chemical Carcinogenesis Research Information System (CCRIS), 2018)
Active and inactive are the calls of the source. How the calls were made is not given here.

Test system: rodent carcinogenicity bioassays, tumor incidence
Assay: CCRIS carcinogenicity studies
Method in brief: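 Archive of carcinogenicity, mutagenicity, tumor promotion and tumor inhibition results drawn from journals, NCI reports and other sources, expert-reviewed; covers 1985-2011 and is no longer updated.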

Nc1ccc(C(=O)Nc2ccccc2N)cc1
carcinogen call (Species: RAT, Strain/Sex: CD-1/FEMALE, Route: GAVAGE, Dose: 0, 1, 3, 9 (WK 1-25), 6 (WK 26-46), 5 (WK 47-106) MG/KG IN 0.8% METHOCEL (TOTAL VOLUME 0.2-0.5 ML/RAT 2/WK FOR 105 WK (M, Dose: 0, 1, 3, 9 (WK 1-25), 6 (WK 26-46), 5 (WK 47-106) MG/KG IN 0.8% METHOCEL (TOTAL VOLUME 0.2-0.5 ML/RAT 2/WK FOR 105 WK (M, Tumor Site: Type of Lesion: ADRENAL GLAND: TUMOR, OVARIES: TUMOR, VAGINA: TUMOR, Tumor Site: Type of Lesion: ADRENAL GLAND: TUMOR, OVARIES: TUMOR, VAGINA: TUMOR): active; positive | carcinogen call (Species: RAT, Strain/Sex: CD-1/MALE, Route: GAVAGE, Dose: 0, 1, 3, 9 (WK 1-25), 6 (WK 26-46), 5 (WK 47-106) MG/KG IN 0.8% METHOCEL(TOTAL VOLUME 0.2-0.5 ML/RAT 2/WK FOR 105 WK (ME, Dose: 0, 1, 3, 9 (WK 1-25), 6 (WK 26-46), 5 (WK 47-106) MG/KG IN 0.8% METHOCEL(TOTAL VOLUME 0.2-0.5 ML/RAT 2/WK FOR 105 WK (ME, Tumor Site: Type of Lesion: ADRENAL GLAND: TUMOR, TESTES: TUMOR): active; positive

c1ccc2c(c1)ccc1[nH]c3ccc4ccccc4c3c12
carcinogen call (Species: HAMSTER, Route: INTRATRACHEAL, Tumor Site: Type of Lesion: LUNG): active; positive | carcinogen call (Species: MOUSE, Route: DERMAL, Tumor Site: Type of Lesion: INTEGUMENTARY SYSTEM (SKIN), LIVER): active; positive | carcinogen call (Species: MOUSE, Route: INTRAVENOUS, Tumor Site: Type of Lesion: LUNG): active; positive | carcinogen call (Species: MOUSE, Route: ORAL, Tumor Site: Type of Lesion: FORESTOMACH, LIVER, LUNG, Tumor Site: Type of Lesion: FORESTOMACH, LIVER, LUNG): active; positive | carcinogen call (Species: MOUSE, Route: SUBCUTANEOUS, Tumor Site: Type of Lesion: INJECTION SITE, LUNG): active; positive | carcinogen call (Species: MOUSE, Strain/Sex: HSD:ICR(BR)/FEMALE, Route: DERMAL, Dose: 0, 50 NMOL IN 50 µL ACETONE 2/WK FOR 99 WK (STUDY DURATION: 99 WK), Tumor Site: Type of Lesion: SKIN: TUMOR, LIVER: TUMOR): active; positive | carcinogen call (Species: MOUSE, Strain/Sex: STRAIN-A/MALE, Route: INTRAPERITONEAL, Dose: 0, 5, 10, 20, 40 MG/KG BW IN 0.2 ML TRICAPRYLIN ONCE (STUDY DURATION: 8 MO), Dose: 0, 5, 10, 20, 40 MG/KG BW IN 0.2 ML TRICAPRYLIN ONCE (STUDY DURATION: 8 MO), Tumor Site: Type of Lesion: LUNG: ADENOMA): active; positive | carcinogen call (Species: Mouse, Strain/Sex: XVIInc/Z homozygous/Female (50 or 162/Group), Route: Subcutaneous, Dose: 3 x 0.3 mg (162 animals) or 34 x 0.05 mg (50 animals) dissolved in olive oil, Tumor Site: Type of Lesion: Liver: Hepatoma (100%), Sarcoma (70%)): active; positive (historical controls only; reported incidence of liver tumors <2% at 2

O=S(=O)(O)OCc1ccc2ccc3cccc4ccc1c2c34
carcinogen call (Species: RAT, Strain/Sex: SPRAGUE-DAWLEY/FEMALE, Route: SUBCUTANEOUS, Dose: 0, 0.2 UMOL IN 0.1 ML SESAME OIL:DMSO (9:1) 1/2 D FOR 20 DOSES (STUDY DURATION: 52 WK), Tumor Site: Type of Lesion: INJECTION SITE: SARCOMA): active; positive

P
carcinogen call (Species: RAT, Strain/Sex: F344/FEMALE, Route: INHALATION, Dose: 0, 0.3, 1.0, 3.0 PPM 6 HR/D 5 D/WK FOR 104 WK (STUDY DURATION: 104 WK), Dose: 0, 0.3, 1.0, 3.0 PPM 6 HR/D 5 D/WK FOR 104 WK (STUDY DURATION: 104 WK)): inactive; negative | carcinogen call (Species: RAT, Strain/Sex: F344/MALE, Route: INHALATION, Dose: 0, 0.3, 1.0, 3.0 PPM 6 HR/D 5 D/WK FOR 104 WK (STUDY DURATION: 104 WK), Dose: 0, 0.3, 1.0, 3.0 PPM 6 HR/D 5 D/WK FOR 104 WK (STUDY DURATION: 104 WK)): inactive; negative

NNCCc1ccccc1
carcinogen call (Species: MOUSE, Strain/Sex: SWISS/MALE, Route: ORAL, Dose: 0, 0.15% IN WATER, Tumor Site: Type of Lesion: BLOOD VESSELS: ANGIOMA, ANGIOSARCOMA, LUNG: ADENOMA, ADENOCARCINOMA): active; positive | carcinogen call (Species: RAT, Strain/Sex: SPRAGUE-DAWLEY/MALE, Route: ORAL, Dose: 0, 0.02% IN DIET FOR 68-87 WK (STUDY DURATION: 87 WK)): inactive; negative

O=C1CCCO1
carcinogen call (Species: MOUSE, Strain/Sex: B6C3F1/FEMALE, Route: GAVAGE, Dose: 0, 262, 525 MG/KG IN CORN OIL 5 D/WK FOR 103 WK (STUDY DURATION: 2 YR), Dose: 0, 262, 525 MG/KG IN CORN OIL 5 D/WK FOR 103 WK (STUDY DURATION: 2 YR)): inactive; negative | carcinogen call (Species: MOUSE, Strain/Sex: B6C3F1/FEMALE, Route: GAVAGE, Dose: 0, 262, 525 MG/KG IN CORN OIL 5 D/WK FOR 103 WK (STUDY DURATION: 105 WK), Dose: 0, 262, 525 MG/KG IN CORN OIL 5 D/WK FOR 103 WK (STUDY DURATION: 105 WK), Tumor Site: Type of Lesion: ADRENAL MEDULLA: BENIGN OR MALIGNANT PHEOCHROMOCYTOMA): equivocal | carcinogen call (Species: RAT, Strain/Sex: F344/FEMALE, Route: GAVAGE, Dose: 0, 225, 450 MG/KG IN CORN OIL 5 D/WK FOR 103 WK (STUDY DURATION: 2 YR), Dose: 0, 225, 450 MG/KG IN CORN OIL 5 D/WK FOR 103 WK (STUDY DURATION: 2 YR)): inactive; negative | carcinogen call (Species: RAT, Strain/Sex: F344/MALE, Route: GAVAGE, Dose: 0, 112, 225 MG/KG IN CORN OIL 5 D/WK FOR 103 WK (STUDY DURATION: 2 YR), Dose: 0, 112, 225 MG/KG IN CORN OIL 5 D/WK FOR 103 WK (STUDY DURATION: 2 YR)): inactive; negative

Cc1ccnc2ccccc12
carcinogen call (Species: MOUSE, Strain/Sex: CD-1/FEMALE, Route: INTRAPERITONEAL, Dose: 0, 0.25, 0.5, 1.0 UMOL IN DMSO TO NEWBORN MICE ON DAYS 1, 8 AND 15 OF LIFE RESPECTIVELY (TOTAL DOSE: 1.75 UMOL) (STUDY D, Dose: 0, 0.25, 0.5, 1.0 UMOL IN DMSO TO NEWBORN MICE ON DAYS 1, 8 AND 15 OF LIFE RESPECTIVELY (TOTAL DOSE: 1.75 UMOL) (STUDY D): inactive; negative | carcinogen call (Species: MOUSE, Strain/Sex: CD-1/MALE, Route: INTRAPERITONEAL, Dose: 0, 0.25, 0.5, 1.0 UMOL IN DMSO TO NEWBORN MICE ON DAY 1,8 AND 15 OF LIFE RESPECTIVELY (TOTAL DOSE: 1.75 UMOL) (STUDY DUR, Dose: 0, 0.25, 0.5, 1.0 UMOL IN DMSO TO NEWBORN MICE ON DAY 1,8 AND 15 OF LIFE RESPECTIVELY (TOTAL DOSE: 1.75 UMOL) (STUDY DUR, Tumor Site: Type of Lesion: LIVER: ADENOMA, HEPATOMA): active; positive | carcinogen call (Species: RAT, Strain/Sex: SPRAGUE-DAWLEY/FEMALE, Route: SUBCUTANEOUS, Dose: 0, 200 UMOL/KG INTO SUPRASCAPULAR REGION ON DAY 1 OF LIFE FOLLOWED BY 0, 100 UMOL 1/WK AT WK 2-7 THEN 0, 200 UMOL ONCE A, Dose: 0, 200 UMOL/KG INTO SUPRASCAPULAR REGION ON DAY 1 OF LIFE FOLLOWED BY 0, 100 UMOL 1/WK AT WK 2-7 THEN 0, 200 UMOL ONCE A): inactive; negative | carcinogen call (Species: RAT, Strain/Sex: SPRAGUE-DAWLEY/MALE, Route: SUBCUTANEOUS, Dose: 0, 200 UMOL/KG INTO SUPRASCAPULAR REGION ON DAY 1 OF LIFE FOLLOWED BY 0, 100 UMOL 1/WK AT WK 2-7 THEN 0, 200 UMOL ONCE A, Dose: 0, 200 UMOL/KG INTO SUPRASCAPULAR REGION ON DAY 1 OF LIFE FOLLOWED BY 0, 100 UMOL 1/WK AT WK 2-7 THEN 0, 200 UMOL ONCE A): inactive; negative

IC(I)I
carcinogen call (Species: MOUSE, Strain/Sex: B6C3F1/FEMALE, Route: GAVAGE, Dose: 0, 47, 93 MG/KG, TWA, Dose: 0, 47, 93 MG/KG, TWA): inactive; negative | carcinogen call (Species: MOUSE, Strain/Sex: B6C3F1/MALE, Route: GAVAGE, Dose: 0, 47, 93 MG/KG, TWA, Dose: 0, 47, 93 MG/KG, TWA): inactive; negative | carcinogen call (Species: RAT, Strain/Sex: OSBORNE-MENDEL/FEMALE, Route: GAVAGE, Dose: 0, 27, 55 MG/KG, TWA, Dose: 0, 27, 55 MG/KG, TWA): inactive; negative | carcinogen call (Species: RAT, Strain/Sex: OSBORNE-MENDEL/MALE, Route: GAVAGE, Dose: 0, 71, 142 MG/KG, TWA, Dose: 0, 71, 142 MG/KG, TWA): inactive; negative
